Measurements published in patent US8871681B2, “Herbicidal compositions comprising 4-amino-3-chloro-5-fluoro-6-(4-chloro-2-fluoro-3-methoxyphenyl) pyridine-2-carboxylic acid or a derivative thereof and certain sulfonylureas” (Dow AgroSciences LLC, priority 2012, dated 2014).

Experiments:
[1] = tested on: GALAP (Galium aparine, cleavers); test: Post-emergence foliar-applied weed control in cereal crops, greenhouse (Example III); assay type: in vivo, Galium aparine (L.); details: Table 51, after 20-22 days, 8.75 gai/ha alone
Method: Seeds of the desired test plant species were planted in Sun Gro MetroMix® 306 planting mixture, which typically has a pH of 6.0 to 6.8 and an organic matter content of about 30 percent, in plastic pots with a surface area of 103.2 square centimeters (cm^2). When required to ensure good germination and healthy plants, a fungicide treatment and/or other chemical or physical treatment was applied. The plants were grown for 7-36 days in a greenhouse with an approximate 14 hour photoperiod which was maintained at about 18° C. during the day and 17° C. during the night. Nutrients and water were added on a regular basis and supplemental lighting was provided with overhead metal halide 1000-Watt lamps as necessary. […]
Measured aliquot of benzyl ester of 4-amino-3-chloro-5-fluoro-6-(4-chloro-2-fluoro-3-methoxy-phenyl)pyridine-2-carboxylic acid (Compound A) was placed in 25 milliliter (mL) glass vials and diluted in a volume of 1.25% (v/v) Agri-dex crop oil concentrated to obtain stock solutions. […]
The treated plants and control plants were placed in a greenhouse as described above and watered by sub-irrigation to prevent wash-off of the test compounds. After 20-22 days, the condition of the test plants as compared with that of the control plants was determined visually and scored on a scale of 0 to 100 percent where 0 corresponds to no injury and 100 corresponds to complete kill. […]

[2] = tested on: SETFA (Setaria faberi, giant foxtail); test: Pre-emergence soil-applied weed control, greenhouse (Example V); assay type: in vivo, Setaria faberi Herrm.; details: Table 59 (pre-emergence)
From the text: Seeds or nutlets of the desired test plant species were planted in a soil matrix prepared by mixing a loam soil (32 percent silt, 23 percent clay, and 45 percent sand, with a pH of about 6.5 and an organic matter content of about 1.9 percent) and calcareous grit in an 80 to 20 ratio. The soil matrix was contained in plastic pots with a volume of 1 quart and a surface area of 83.6 square centimeters (cm^2).
Treatments consisted of the benzyl ester of 4-amino-3-chloro-5-fluoro-6-(4-chloro-2-fluoro-3-methoxy-phenyl)pyridine-2-carboxylic acid (compound A) formulated as an SC (suspension concentrate) and various herbicidal components alone and in combination. Forms of compound A were applied on an acid equivalent basis.
Other herbicidal components were applied on an acid equivalent or active ingredient basis and included the acetolactate synthase (ALS)-inhibiting herbicide, flazasulfuron, formulated as Katana®.
Treatment requirements were calculated based upon the rates being tested, the concentration of active ingredient or acid equivalent in the formulation, and a 12 mL application volume at a rate of 187 L/ha.
For treatments comprised of formulated compounds, measured amounts of compounds were placed individually in 25 mL glass vials and diluted in a volume of 1.25% (v/v) Agri-Dex® crop oil concentrate (COC) to obtain 12× stock solutions. […] Application solutions were prepared by adding an appropriate amount of each stock solution (e.g., 1 mL) and diluted to the appropriate final concentrations with the addition of 10 mL of an aqueous mixture of 1.25% (v/v) COC so that the final spray solutions contained 1.25% (v/v) COC. […]
The treated and control pots were placed in a greenhouse and top watered as needed. […] After approximately 4 weeks, the condition of the test plants as compared with that of the untreated plants was determined visually and scored on a scale of 0 to 100 percent where 0 corresponds to no injury or growth inhibition and 100 corresponds to complete kill. […]

COc1c(Cl)ccc(-c2nc(C(=O)OCc3ccccc3)c(Cl)c(N)c2F)c1F [Compound A Benzyl Ester]
Weed Control GALAP Obs [1]: 70%
Visual Weed Control (%) - 27 DAA SETFA Obs ([2]; 16 gae/ha alone): 8%
Visual Weed Control (%) - 27 DAA SETFA Obs ([2]; 32 gae/ha alone): 15%
